Key:
cloned human H3 receptor = cloned human H3 receptor (Homo sapiens, UniProt Q9Y5N1); test: H3 Receptor Binding; conditions: cloned human H3 receptor stably expressed in SK-N-MC cells
Rat SERT = Rat SERT (Rattus norvegicus, UniProt P31652); test: biochemical
Sequence of Rat SERT (P31652 whole entry): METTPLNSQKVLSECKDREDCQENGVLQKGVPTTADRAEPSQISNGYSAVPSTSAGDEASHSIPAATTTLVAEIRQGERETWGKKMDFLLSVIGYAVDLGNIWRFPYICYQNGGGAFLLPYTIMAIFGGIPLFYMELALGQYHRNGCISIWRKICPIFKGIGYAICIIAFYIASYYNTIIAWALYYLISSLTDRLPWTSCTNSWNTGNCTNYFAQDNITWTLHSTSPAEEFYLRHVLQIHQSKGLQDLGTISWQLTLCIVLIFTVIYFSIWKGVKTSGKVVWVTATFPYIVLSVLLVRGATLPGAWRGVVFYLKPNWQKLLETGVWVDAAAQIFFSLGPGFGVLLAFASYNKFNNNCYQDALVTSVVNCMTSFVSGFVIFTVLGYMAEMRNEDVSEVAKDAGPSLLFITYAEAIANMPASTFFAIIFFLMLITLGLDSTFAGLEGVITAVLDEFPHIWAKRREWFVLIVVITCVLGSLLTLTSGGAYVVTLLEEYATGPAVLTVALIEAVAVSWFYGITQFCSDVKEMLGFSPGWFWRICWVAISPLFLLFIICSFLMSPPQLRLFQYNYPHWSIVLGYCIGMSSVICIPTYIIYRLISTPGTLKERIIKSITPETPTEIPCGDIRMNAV
Protocol: The supernatant was removed and re-centrifuged at 15,000 rpm for 30 min. […] Membranes were incubated with 0.6 nM [^3H]-Citalopram plus/minus test compounds for 60 min at 25° C. and harvested by rapid filtration over GF/C glass fiber filters (pretreated with 0.3% polyethylenimine) followed by four washes with ice-cold buffer. Nonspecific binding was defined in the presence of 100 μM fluoxetine.

Sequence of cloned human H3 receptor (Q9Y5N1 whole entry): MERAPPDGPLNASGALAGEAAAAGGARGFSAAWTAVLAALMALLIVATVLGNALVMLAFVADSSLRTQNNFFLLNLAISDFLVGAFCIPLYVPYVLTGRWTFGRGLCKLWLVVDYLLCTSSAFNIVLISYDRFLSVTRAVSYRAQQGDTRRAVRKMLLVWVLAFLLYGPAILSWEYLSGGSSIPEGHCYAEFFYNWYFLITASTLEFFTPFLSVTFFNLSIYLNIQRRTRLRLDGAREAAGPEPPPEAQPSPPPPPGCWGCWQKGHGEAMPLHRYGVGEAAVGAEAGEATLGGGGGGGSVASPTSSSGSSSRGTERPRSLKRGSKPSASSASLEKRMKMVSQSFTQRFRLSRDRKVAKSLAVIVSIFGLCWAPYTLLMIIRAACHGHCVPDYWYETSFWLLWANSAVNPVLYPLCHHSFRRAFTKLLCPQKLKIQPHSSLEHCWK

Row | Structure (SMILES) | Ki (cloned human H3 receptor) | Ki (Rat SERT)
1 | CNCc1cc(C(=O)N2CCN(C3CC3)CC2)ccc1Oc1ccc(C)nc1 [Example 20, (4-Cyclopropyl-piperazin-1-yl)-[3-methylaminomethyl-4-(6-methyl-pyridin-3-yloxy)-phenyl]-methanone] | 0.059 µM | 0.19 µM
2 | CNCc1cc(C(=O)N2CCN(C3CC3)CC2)ccc1Oc1ccc(F)c(Cl)c1 [Example 21, [4-(3-Chloro-4-fluoro-phenoxy)-3-methylaminomethyl-phenyl]-(4-cyclopropyl-piperazin-1-yl)-methanone] | 0.032 µM | 0.019 µM
3 | CNCc1cc(C(=O)N2CCC(N3CCOCC3)CC2)ccc1Oc1ccc(SC)cc1 [Example 23, [3-Methylaminomethyl-4-(4-methylsulfanyl-phenoxy)-phenyl]-(4-morpholin-4-yl-piperidin-1-yl)-methanone] | 0.05 µM | 0.003 µM
4 | CNCc1cc(C(=O)N2CCN(C3CC3)CC2)ccc1Oc1cccc(Cl)c1F [Example 24, [4-(3-Chloro-2-fluoro-phenoxy)-3-methylaminomethyl-phenyl]-(4-cyclopropyl-piperazin-1-yl)-methanone] | 0.031 µM | 0.13 µM
5 | CNCc1cc(C(=O)NCCN(C)C)ccc1Oc1cccc(Cl)c1 [Example 26, 4-(3-Chloro-phenoxy)-N-(2-dimethylamino-ethyl)-3-methylaminomethyl-benzamide] | 0.1 µM | 0.003 µM
6 | CNCc1cc(C(=O)NCCCN(C)C)ccc1Oc1cccc(Cl)c1 [Example 27, 4-(3-Chloro-phenoxy)-N-(3-dimethylamino-propyl)-3-methylaminomethyl-benzamide] | 0.048 µM | 0.0008 µM
7 | CNCc1cc(C(=O)N2CCN(C3CC3)CC2)ccc1Sc1ccc(Cl)cc1 [Example 28, [4-(4-Chloro-phenylsulfanyl)-3-methylaminomethyl-phenyl]-(4-cyclopropyl-piperazin-1-yl)-methanone] | 0.15 µM | –
8 | CNCc1cc(C(=O)N2CCN(C3CC3)CC2)ccc1Sc1ccccn1 [Example 29, (4-Cyclopropyl-piperazin-1-yl)-[3-methylaminomethyl-4-(pyridin-2-ylsulfanyl)-phenyl]-methanone] | 0.17 µM | –
9 | CNCc1cc(N2CCN(C)CC2)ccc1Oc1ccc(SC)cc1 [Example 41, Methyl-[5-(4-methyl-piperazin-1-yl)-2-(4-methylsulfanyl-phenoxy)-benzyl]-amine] | 0.21 µM | 0.0004 µM
10 | CNCc1cc(N2CCN(c3ccncc3)CC2)ccc1Oc1ccc(SC)cc1 [Example 43, Methyl-[2-(4-methylsulfanyl-phenoxy)-5-(4-pyridin-4-yl-piperazin-1-yl)-benzyl]-amine] | 0.11 µM | 0.0007 µM
11 | CNCc1cc(N2CCN(CCF)CC2)ccc1Oc1ccc(SC)cc1 [Example 44, [5-[4-(2-Fluoro-ethyl)-piperazin-1-yl]-2-(4-methylsulfanyl-phenoxy)-benzyl]-methyl-amine] | 0.16 µM | 0.0005 µM
12 | CNCc1cc(N2CCN(C3CC3)CC2)ccc1Oc1ccc(SC)cc1 [Example 45, [5-(4-Cyclopropyl-piperazin-1-yl)-2-(4-methylsulfanyl-phenoxy)-benzyl]-methyl-amine] | 0.076 µM | 0.001 µM
13 | CNCc1cc(N2CCN(C3CC3)CC2)ccc1Oc1ccc(Cl)c(Cl)c1 [Example 46, [5-(4-Cyclopropyl-piperazin-1-yl)-2-(3,4-dichloro-phenoxy)-benzyl]-methyl-amine] | 0.049 µM | 0.004 µM
14 | CNCc1cc(N2CCNCC2=O)ccc1Oc1ccc(SC)cc1 [Example 48, 1-[3-Methylaminomethyl-4-(4-methylsulfanyl-phenoxy)-phenyl]-piperazin-2-one] | 5.5 µM | 0.0004 µM
15 | CNCc1cc(N2CCN(C(C)C)CC2=O)ccc1Oc1ccc(SC)cc1 [Example 49, 4-Isopropyl-1-[3-methylaminomethyl-4-(4-methylsulfanyl-phenoxy)-phenyl]-piperazin-2-one] | 0.4 µM | 0.002 µM
16 | CNCc1cc(N2CCN(C(C)C)CC2=O)ccc1Oc1ccc(Cl)c(Cl)c1 [Example 50, 1-[4-(3,4-Dichloro-phenoxy)-3-methylaminomethyl-phenyl]-4-isopropyl-piperazin-2-one] | 0.15 µM | 0.007 µM
17 | CNCc1cc(N2CCC(N3CCOCC3)CC2)ccc1Oc1ccc(SC)cc1 [Example 51, Methyl-[2-(4-methylsulfanyl-phenoxy)-5-(4-morpholin-4-yl-piperidin-1-yl)-benzyl]-amine] | 0.028 µM | 0.002 µM
18 | CNCc1cc(N2CCCN(C3CC3)CC2)ccc1Oc1ccc(SC)cc1 [Example 53, [5-(4-Cyclopropyl-[1,4]diazepan-1-yl)-2-(4-methylsulfanyl-phenoxy)-benzyl]-methyl-amine] | 0.028 µM | 0.006 µM
19 | COCCN(CCOC)Cc1ccc(C(=O)N2CCN(C3CC3)CC2)cc1Oc1ccc(C)nc1C [Example 82, [4-{[Bis-(2-methoxy-ethyl)-amino]-methyl}-3-(2,6-dimethyl-pyridin-3-yloxy)-phenyl]-(4-cyclopropyl-piperazin-1-yl)-methanone] | 0.2 µM | –
20 | CN(C)Cc1ccc(C(=O)N2CCCCC2)cc1Oc1ccccc1 [Example 84, (4-Dimethylaminomethyl-3-phenoxy-phenyl)-piperidin-1-yl-methanone] | 4.5 µM | –
21 | COCCN(CCOC)Cc1ccc(C(=O)N2CCC(N(C)C)CC2)cc1Oc1cccnc1 [Example 86, [4-{[Bis-(2-methoxy-ethyl)-amino]-methyl}-3-(pyridin-3-yloxy)-phenyl]-(4-dimethylamino-piperidin-1-yl)-methanone] | 0.2 µM | –
22 | CC(C)N1CCN(Cc2ccc(C(=O)N3CCCCC3)cc2Oc2ccccc2)CC1 [Example 87, [4-(4-Isopropyl-piperazin-1-ylmethyl)-3-phenoxy-phenyl]-piperidin-1-yl-methanone] | 0.28 µM | –
23 | CC(C)N1CCN(Cc2ccc(C(=O)N3CCCCC3)cc2Oc2cccnc2)CC1 [Example 88, [4-(4-Isopropyl-piperazin-1-ylmethyl)-3-(pyridin-3-yloxy)-phenyl]-piperidin-1-yl-methanone] | 0.22 µM | –
24 | CNCCNC(=O)c1ccc(CN(C)C)c(Oc2cccnc2)c1 [Example 89, 4-Dimethylaminomethyl-N-(2-methylamino-ethyl)-3-(pyridin-3-yloxy)-benzamide] | 1.9 µM | –
25 | CN(C)Cc1ccc(C(=O)NCCN(C)C2CC2)cc1Oc1cccnc1 [Example 90, N-[2-(Cyclopropyl-methyl-amino)-ethyl]-4-dimethylaminomethyl-3-(pyridin-3-yloxy)-benzamide] | 0.045 µM | –
26 | COc1cccc(Oc2ccc(C(=O)N3CCN(C(C)C)CC3)cc2CN(C)C(=O)OC(C)(C)C)c1 [Example 91, [5-(4-Isopropyl-piperazine-1-carbonyl)-2-(3-methoxy-phenoxy)-benzyl]-methyl-carbamic acid tert-butyl ester] | 0.058 µM | –

These reach a lower Ki (cloned human H3 receptor). Values come first.

Row | Ki (cloned human H3 receptor) | Ki (Rat SERT) | Structure (SMILES)
27 | 0.026 µM | 6 µM | CN(C)C1CCN(C(=O)c2ccc(CNC3CC3)c(Oc3cccnc3)c2)C1 (stereo not shown) [Example 32, [4-Cyclopropylaminomethyl-3-(pyridin-3-yloxy)-phenyl]-(3-dimethylamino-pyrrolidin-1-yl)-methanone]
28 | 0.021 µM | – | Cc1ccc(Oc2cc(C(=O)N3CCN(C(C)C)CC3)ccc2CN2CCOCC2)c(C)n1 [Example 83, [3-(2,6-Dimethyl-pyridin-3-yloxy)-4-morpholin-4-ylmethyl-phenyl]-(4-isopropyl-piperazin-1-yl)-methanone]
29 | 0.02 µM | 0.002 µM | CNCc1cc(N2CCN(C(C)C)CC2)ccc1Oc1ccc(Cl)c(Cl)c1 [Example 47, [2-(3,4-Dichloro-phenoxy)-5-(4-isopropyl-piperazin-1-yl)-benzyl]-methyl-amine]
30 | 0.018 µM | 0.021 µM | CNCc1cc(C(=O)N2CCN(C3CC3)CC2)ccc1Oc1ccc(Cl)cc1F [Example 22, [4-(4-Chloro-2-fluoro-phenoxy)-3-methylaminomethyl-phenyl]-(4-cyclopropyl-piperazin-1-yl)-methanone]
31 | 0.015 µM | 0.017 µM | CNCc1ccc(C(=O)N2CCN(C3CC3)CC2)cc1Oc1ccc(Cl)c(Cl)c1 [Example 39, (4-Cyclopropyl-piperazin-1-yl)-[3-(3,4-dichloro-phenoxy)-4-methylaminomethyl-phenyl]-methanone]
32 | 0.012 µM | – | COCCN(CCOC)Cc1ccc(C(=O)N2CCN(C(C)C)CC2)cc1Oc1ccccc1 [Example 85, (4-{[Bis-(2-methoxy-ethyl)-amino]-methyl}-3-phenoxy-phenyl)-(4-isopropyl-piperazin-1-yl)-methanone]
33 | 0.008 µM | 0.001 µM | CNCc1cc(N2CCCN(C(C)C)CC2)ccc1Oc1ccc(SC)cc1 [Example 52, [5-(4-Isopropyl-[1,4]diazepan-1-yl)-2-(4-methylsulfanyl-phenoxy)-benzyl]-methyl-amine]
34 | 0.007 µM | 0.0009 µM | CNCc1cc(C(=O)N2CC[C@H](N(C)C)C2)ccc1Oc1ccc(SC)cc1 [Example 25, (S)-(3-Dimethylamino-pyrrolidin-1-yl)-[3-methylaminomethyl-4-(4-methylsulfanyl-phenoxy)-phenyl]-methanone]
35 | 0.007 µM | 0.0001 µM | CNCc1cc(N2CCN(C(C)C)CC2)ccc1Oc1ccc(SC)cc1 [Example 40, [5-(4-Isopropyl-piperazin-1-yl)-2-(4-methylsulfanyl-phenoxy)-benzyl]-methyl-amine]
36 | 0.006 µM | 0.0003 µM | CNCc1cc(N2CCN(C3CCC3)CC2)ccc1Oc1ccc(SC)cc1 [Example 42, [5-(4-Cyclobutyl-piperazin-1-yl)-2-(4-methylsulfanyl-phenoxy)-benzyl]-methyl-amine]
37 | 0.004 µM | 0.13 µM | CNCc1ccc(C(=O)N2CCN(C(C)C)CC2)cc1Oc1cccc(Cl)c1 [Example 38, [3-(3-Chloro-phenoxy)-4-methylaminomethyl-phenyl]-(4-isopropyl-piperazin-1-yl)-methanone]
38 | 0.001 µM | 0.002 µM | CNCc1ccc(C(=O)N2CCN(C(C)C)CC2)cc1Oc1ccc(Cl)c(Cl)c1 [Example 37, [3-(3,4-Dichloro-phenoxy)-4-methylaminomethyl-phenyl]-(4-isopropyl-piperazin-1-yl)-methanone]

— US7479493B2, “Substituted benzyl amine compounds” (Janssen Pharmaceutica N.V., priority 2006, dated 2009)
